Consider 50 molecules from USRE46630E1, “Substituted 4-pyridones and their use as inhibitors of neutrophil elastase activity” (Boehringer Ingelheim International GmbH, priority 2012, dated 2017).

Where only a bound is given, the exact number is not on record here.

The assay concerns the target T1, Human neutrophil elastase (Homo sapiens, UniProt P08246).
T1 construct: purchased Calbiochem 324681
T1 sequence (P08246 30-267): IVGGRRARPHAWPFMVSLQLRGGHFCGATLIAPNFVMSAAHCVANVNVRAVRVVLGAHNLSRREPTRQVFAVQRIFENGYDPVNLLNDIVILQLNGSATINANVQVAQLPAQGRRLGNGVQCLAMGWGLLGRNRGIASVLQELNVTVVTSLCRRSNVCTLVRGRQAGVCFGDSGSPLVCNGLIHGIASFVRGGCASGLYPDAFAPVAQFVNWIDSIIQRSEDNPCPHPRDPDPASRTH
Nature of the assay: Human Neutrophil Elastase Assay. It is filed as biochemical. The conditions noted are these: Neutrophil Elastase assay; substrate MeOSuc-Ala-Ala-Pro-Val-AMC 250 μM; 15 min preincubation, 60 min incubation at room temperature; pH 7.5. The procedure, abridged:
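Run in 100 mM Tris, 500 mM NaCl, pH 7.5 with 0.01% BSA, with compounds prediluted in DMSO then buffer (5% DMSO final). Fluorescence was read at 380 nm excitation/460 nm emission after enzyme inactivation. Values were normalised to inactivated-enzyme (0%) and uninhibited-enzyme (100%) controls.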
As to `Cc1c(-c2cccc(C(F)(F)F)c2)c(=O)c(C(=O)NCc2ccnn2C)cn1Cc1ccc(C#N)cc1` [Example 1.33], the IC50 (as a rule, the concentration needed to halve the response being measured) stood at 3.7 nM.

As for `Cc1c(-c2ccnc(C(F)(F)F)c2)c(=O)c(C(=O)NCC2CC(O)C2)cn1C(C)c1ccc(C#N)cc1` (centres unmarked) [Example 9.48], the IC50 amounted to 17.3 nM. Against the preceding molecule, the IC50 is about 4.7-fold higher.

`Cc1c(-c2ccnc(C(F)(F)F)c2)c(=O)c(C(=O)NCc2ccnn2C)cn1C(C)c1ccc(C#N)cc1` (centres unmarked) [Example 9.16] registered an IC50 of 6.7 nM.

Molecule `Cc1c(-c2cccc(C(F)(F)F)c2)c(=O)c(C(=O)NCC(C)(C)O)cn1C(C)c1ccc(C#N)cc1` (centres unmarked) [Example 7.15] yielded a concentration for half-maximal inhibition (IC50) of 10.3 nM. Compared with the last molecule, the IC50 is about 1.5-fold higher.

In turn, `Cc1cc(-c2c(C)n(Cc3ccc(C#N)cc3)cc(C(=O)NCc3ccc(S(C)(=O)=O)cc3)c2=O)ccn1` [Example 6.3] yielded an IC50 of 9.1 nM.

Consider `COCCCNC(=O)c1cn(C(C)c2ccc(C#N)cc2)c(C)c(-c2cccc(C(F)F)c2)c1=O` (centres unmarked) [Example 8.25], for which the IC50 was 1.8 nM. Compared with the last molecule, the IC50 is about 5.1-fold lower.

In the case of `COCCNC(=O)c1cn(Cc2ccc(C#N)cc2)c(C)c(-c2cccc(C(F)(F)F)c2)c1=O` [Example 1.5], the midpoint of inhibition, the IC50, lay at 10.4 nM.

As to `Cc1c(-c2cccc(C(F)(F)F)c2)c(=O)c(C(=O)N[C@H]2CC[C@H](O)CC2)cn1Cc1ccc(C#N)cc1` [Example 1.27], the IC50 was 46.4 nM. This IC50 is about 4.5-fold higher than that of the molecule before.

`CNC(=O)c1cn(Cc2ccc(F)cc2)c(C)c(-c2cccc(C(F)(F)F)c2)c1=O` [Example 3.3] gave an IC50 of 51 nM.

Take `Cc1c(-c2cccc(C(F)(F)F)c2)c(=O)c(C(=O)NCc2ccc(S(C)(=O)=O)cn2)cn1C(C)c1ccc(C#N)cc1` (centres unmarked) [Example 4.10]: the IC50 is under 1 nM.

In turn, `Cc1c(-c2ccnc(C(F)(F)F)c2)c(=O)c(C(=O)NC(C)C#N)cn1C(C)c1ccc(C#N)cc1` (centres unmarked) [Example 9.50] showed an IC50 of 4.6 nM.

In turn, `Cc1c(-c2cccc(C(F)(F)F)c2)c(=O)c(C(=O)NCC2(O)CC2)cn1C(C)c1ccc(C#N)cn1` (centres unmarked) [Example 47.7] had a concentration for half-maximal inhibition (IC50) of 30.1 nM.

Molecule `Cc1nnc(CNC(=O)c2cn(Cc3ccc(C#N)cc3)c(C)c(-c3cccc(C(F)(F)F)c3)c2=O)o1` [Example 1.15] returned an IC50 of 7.9 nM.

Molecule `Cc1c(-c2cccc(C(F)(F)F)c2)c(=O)c(C(=O)NCc2ccc(S(C)(=O)=O)cc2)cn1Cc1cccc(C#N)c1` [Example 2.10] registered an IC50 of 83.8 nM.

`Cc1c(-c2cc(C(F)(F)F)ccn2)c(=O)c(C(=O)NCc2ccc(S(C)(=O)=O)cc2)cn1Cc1ccc(C#N)cc1` [Example 6.12] yielded an IC50 of 3.8 nM.

`CS(=O)(=O)c1ccc(CNC(=O)c2cn(Cc3ccc(C#N)cc3)cc(-c3cccc(C(F)(F)F)c3)c2=O)cc1` [Example 13.1, 1-(4-Cyano-benzyl)-4-oxo-5-(3-trifluoromethyl-phenyl)-1,4-dihydro-pyridine-3-carboxylic acid 4-methanesulfonyl-benzylamide] showed an IC50 of 6.6 nM.

Molecule `Cc1c(-c2ccnc(C(F)(F)F)c2)c(=O)c(C(=O)NCCC(C)O)cn1C(C)c1ccc(C#N)cc1` (centres unmarked) [Example 9.60] had an IC50 of 5.7 nM.

In turn, `Cc1c(-c2ccnc(C(F)(F)F)c2)c(=O)c(C(=O)NC2COC2)cn1C(C)c1ccc(C#N)cc1` (centres unmarked) [Example 9.17] had an IC50 of 10.1 nM.

`Cc1c(-c2ccnc(C(F)(F)F)c2)c(=O)c(C(=O)NCCF)cn1C(C)c1ccc(C#N)cc1` (centres unmarked) [Example 9.44] gave an IC50 of 9.8 nM.

On to `Cc1c(-c2cccc(C(F)(F)F)c2)c(=O)c(C(=O)NCc2ccnnc2)cn1Cc1ccc(C#N)cc1` [Example 1.14], for which the IC50 worked out at 1.8 nM.

`CCC(c1ccc(C#N)cc1)n1cc(C(=O)NC)c(=O)c(-c2ccnc(C(F)(F)F)c2)c1C` (centres unmarked) [Example 36, 1-[1-(4-Cyano-phenyl)-propyl]-2-methyl-4-oxo-2′-trifluoromethyl-1,4-dihydro-[3,4′]bipyridinyl-5-carboxylic acid methylamide] gave an IC50 of 18.4 nM. This IC50 is about 10-fold higher than that of the molecule before.

Take `Cc1c(-c2cccc(C(F)(F)F)c2)c(=O)c(C(=O)NCc2ccc(S(C)(=O)=O)cc2)cn1Cc1ccc(C#N)cc1F` [Example 2.8]: the IC50 is under 1 nM.

In turn, `CCOCCNC(=O)c1cn(C(C)c2ccc(C#N)cc2)c(C)c(-c2ccnc(C(F)(F)F)c2)c1=O` (centres unmarked) [Example 9.58] came in with an IC50 of 5.4 nM.

`Cc1c(-c2cccc(C(F)(F)F)c2)c(=O)c(C(=O)NCc2ccc(S(C)(=O)=O)cn2)cn1Cc1ccc(C#N)cc1` [Example 4.1, 1-(4-cyano-benzyl)-6-methyl-4-oxo-5-(3-trifluoromethyl-phenyl)-1,4-dihydro-pyridine-3-carboxylic acid (5-methanesulfonyl-pyridin-2-ylmethyl)-amide] gave an IC50 of under 1 nM.

`Cc1c(-c2cccc(C(F)F)c2)c(=O)c(C(=O)NCc2ccc(S(C)(=O)=O)cc2)cn1C(C)c1ccc(C#N)cc1` (single isomer, unassigned) [Example 11A]: the IC50 is under 1 nM.

As to `CNC(=O)c1cn(Cc2ccc(C#N)cc2F)c(C)c(-c2cccc(C(F)(F)F)c2)c1=O` [Example 3.6], the IC50 was 20.3 nM. In other words, the double-digit nanomolar range.

With `Cc1c(-c2cccc(C(F)(F)F)c2)c(=O)c(C(=O)NCCN(C)C)cn1Cc1ccc(C#N)cc1` [Example 1.6], it took 30.5 nM to reach half-maximal inhibition (IC50).

On to `Cc1c(-c2cccc(C(F)F)c2)c(=O)c(C(=O)NCc2ccncc2)cn1C(C)c1ccc(C#N)cc1` (centres unmarked) [Example 8.20], for which the IC50 came to 1 nM. This IC50 is about 30-fold lower than that of the molecule before.

Consider `Cc1c(-c2cccc(C(F)(F)F)c2)c(=O)c(C(=O)NCCCO)cn1Cc1ccc(C#N)cc1` [Example 1.9], for which it took 8.4 nM to reach half-maximal inhibition (IC50).

Turning to `Cc1c(-c2cccc(C(F)(F)F)c2)c(=O)c(C(=O)NCc2ccc(S(C)(=O)=O)cn2)cn1Cc1ccc(C#N)c(F)c1` [Example 4.5], inhibition was half-maximal at 1 nM (IC50).

`Cc1c(-c2cccc(C(F)(F)F)c2)c(=O)c(C(=O)NCC[S+](C)[O-])cn1Cc1ccc(C#N)cc1` (centres unmarked) [Example 1.13]: the IC50 stood at 6.6 nM.

For the molecule `CNC(=O)c1cn(Cc2ccc(C#N)c(F)c2)c(C)c(-c2ccnc(C(F)(F)F)c2)c1=O` [Example 43, 1-(4-Cyano-3-fluoro-benzyl)-2-methyl-4-oxo-2′-trifluoromethyl-1,4-dihydro-[3,4′]bipyridinyl-5-carboxylic acid methylamide], inhibition was half-maximal at 48.4 nM (IC50).

Consider `Cc1c(-c2cccc(C(F)(F)F)c2)c(=O)c(C(=O)NC2CCNC2=O)cn1C(C)c1ccc(C#N)cc1` (centres unmarked) [Example 7.12], for which 1.5 nM corresponded to half-maximal inhibition (IC50).

Take `Cc1c(-c2ccnc(C(F)(F)F)c2)c(=O)c(C(=O)NCC#N)cn1C(C)c1ccc(C#N)cc1` (centres unmarked) [Example 9.13]: the IC50 came out at 1.7 nM. The IC50 values of the last two molecules are within 1.5-fold of each other.

In turn, `Cc1cccc(-c2c(C)n(Cc3ccc(C#N)cc3)cc(C(=O)NCc3ccc(S(C)(=O)=O)cc3)c2=O)c1` [Example 6.2] gave an IC50 of 1.5 nM.

Take `Cc1c(-c2cccc(C(F)(F)F)c2)c(=O)c(C(=O)NCCC[N+](C)(C)C)cn1Cc1ccc(C#N)cc1` [Example 12.2, (3-{[1-(4-Cyano-benzyl)-6-methyl-4-oxo-5-(3-trifluoromethyl-phenyl)-1,4-dihydro-pyridine-3-carbonyl]-amino}-propyl)-trimethyl-ammonium chloride]: the midpoint of inhibition, the IC50, lay at 49.5 nM.

On to `Cc1nnc(CNC(=O)c2cn(C(C)c3ccc(C#N)cc3)c(C)c(-c3cccc(C(F)(F)F)c3)c2=O)o1` (centres unmarked) [Example 7.5], for which 1.4 nM corresponded to half-maximal inhibition (IC50).

Turning to `CNC(=O)c1cn(Cc2ccc(C#N)cc2S(C)(=O)=O)c(C)c(-c2cccc(C(F)(F)F)c2)c1=O` [Example 20], half-maximal inhibition (IC50) required 8.6 nM.

Consider `Cc1c(-c2cccc(C(F)(F)F)c2)c(=O)c(C(=O)NCCN2CCCC2=O)cn1Cc1ccc(C#N)cc1` [Example 1.28], for which the midpoint of inhibition, the IC50, lay at 21.8 nM.

The molecule `Cc1c(-c2ccnc(C(F)(F)F)c2)c(=O)c(C(=O)NCC2CC3CCC2O3)cn1C(C)c1ccc(C#N)cc1` (centres unmarked) [Example 9.24] had an IC50 of 9.8 nM. Compared with the last molecule, the IC50 is about 2.2-fold lower.

As to `CNC(=O)c1cn(C(C)c2ccc(C#N)cc2)c(C)c(-c2ccc(F)c(C(F)(F)F)c2)c1=O` (centres unmarked) [Example 30], the IC50 amounted to 5.3 nM. This IC50 lies about 1.8-fold lower than the previous one.

In the case of `Cc1c(-c2cccc(C(F)F)c2)c(=O)c(C(=O)NCC[S+](C)[O-])cn1C(C)c1ccc(C#N)cc1` (centres unmarked) [Example 8.8], the IC50 was found to be 1.1 nM.

For `Cc1c(-c2cccc(C(F)(F)F)c2)c(=O)c(C(=O)NCc2cccnc2)cn1Cc1ccc(C#N)cc1` [Example 1.46], the IC50 came out at 5.9 nM.

`CCNC(=O)c1cn(C(CC)c2ccc(C#N)cc2)c(C)c(-c2cccc(C(F)(F)F)c2)c1=O` (centres unmarked) [Example 35, 1-[1-(4-Cyano-phenyl)-propyl]-6-methyl-4-oxo-5-(3-trifluoromethyl-phenyl)-1,4-dihydro-pyridine-3-carboxylic acid ethylamide]: the midpoint of inhibition, the IC50, lay at 7.8 nM.

Take `Cc1c(-c2cccc(C(F)F)c2)c(=O)c(C(=O)NCc2ccc(S(C)(=O)=O)cc2)cn1Cc1ccc(C#N)cc1F` [Example 41, 1-(4-Cyano-2-fluoro-benzyl)-5-(3-difluoromethyl-phenyl)-6-methyl-4-oxo-1,4-dihydro-pyridine-3-carboxylic acid 4-methanesulfonyl-benzylamide]: the IC50 was under 1 nM.

With `Cc1c(-c2cccc(C(F)F)c2)c(=O)c(C(=O)NCc2ccno2)cn1C(C)c1ccc(C#N)cc1` (centres unmarked) [Example 8.17], the half-inhibitory concentration (IC50) came out at 3.1 nM.

As for `Cc1c(-c2ccnc(C(F)(F)F)c2)c(=O)c(C(=O)NCC(C)O)cn1C(C)c1ccc(C#N)cc1` (centres unmarked) [Example 9.62], the IC50 came out at 12 nM. Compared with the last molecule, the IC50 is about 3.9-fold higher.

`Cc1c(-c2cccc(C(F)(F)F)c2)c(=O)c(C(=O)NC2(C#N)CC2)cn1C(C)c1ccc(C#N)cn1` (centres unmarked) [Example 47.18] yielded an IC50 of 6.4 nM. This IC50 is about 1.9-fold lower than that of the molecule before.

Consider `Cc1c(-c2cccc(C(F)(F)F)c2)c(=O)c(C(=O)NCc2ccc(S(C)(=O)=O)c[n+]2[O-])cn1Cc1ccc(C#N)cc1` [Example 14, Pyridin-N-oxide of example 4.1], for which the IC50 is under 1 nM.

Turning to `Cc1c(-c2cccc(C(F)(F)F)c2)c(=O)c(C(=O)NCC#N)cn1C(C)c1ccc(C#N)cn1` (centres unmarked) [Example 47.20], half-maximal inhibition (IC50) required 2.5 nM.
